In paper PMC6389848, “Characterization and structure‐guided engineering of the novel versatile terpene monooxygenase CYP109Q5 from Chondromyces apiculatus DSM436” (Microbial Biotechnology, 2018):

Columns and labels:
[1] = biological target: T1, CYP109B1 (Bacillus subtilis, UniProt O34374); assay: in vitro biotransformation, GC-FID / GC-MS; assay type: biochemical; conditions: redox partners CamA/CamB from Pseudomonas putida, NAD(P)H, 1 mM substrate, 2 μM P450, pH 7.0, 30°C, 2 h
T1 construct: gene yjiB; purified enzyme; construct not described in main text
T1 sequence (O34374 1-396): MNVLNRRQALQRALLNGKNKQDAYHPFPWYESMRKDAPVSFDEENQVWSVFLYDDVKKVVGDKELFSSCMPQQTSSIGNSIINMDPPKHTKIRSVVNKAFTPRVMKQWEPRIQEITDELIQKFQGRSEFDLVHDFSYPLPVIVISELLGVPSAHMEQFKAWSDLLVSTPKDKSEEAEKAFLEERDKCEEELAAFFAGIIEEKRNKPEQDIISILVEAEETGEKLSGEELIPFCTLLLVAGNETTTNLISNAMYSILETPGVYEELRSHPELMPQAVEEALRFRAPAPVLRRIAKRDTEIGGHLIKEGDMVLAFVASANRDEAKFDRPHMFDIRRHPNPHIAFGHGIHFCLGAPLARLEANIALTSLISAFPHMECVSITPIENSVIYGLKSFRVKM

[2] = biological target: T2, CYP109Q5 (Chondromyces apiculatus, UniProt A0A017T5A5); assay: in vitro biotransformation, HPLC; assay type: biochemical; conditions: redox partners CamA/CamB from Pseudomonas putida, NAD(P)H, 1 mM substrate, 2 μM P450, pH 7.0, 30°C
T2 construct: gene CAP_4855; native gene from genomic DNA in pBAD33, untagged, E. coli JW5510, partially purified by anion exchange
T2 sequence (A0A017T5A5 1-397): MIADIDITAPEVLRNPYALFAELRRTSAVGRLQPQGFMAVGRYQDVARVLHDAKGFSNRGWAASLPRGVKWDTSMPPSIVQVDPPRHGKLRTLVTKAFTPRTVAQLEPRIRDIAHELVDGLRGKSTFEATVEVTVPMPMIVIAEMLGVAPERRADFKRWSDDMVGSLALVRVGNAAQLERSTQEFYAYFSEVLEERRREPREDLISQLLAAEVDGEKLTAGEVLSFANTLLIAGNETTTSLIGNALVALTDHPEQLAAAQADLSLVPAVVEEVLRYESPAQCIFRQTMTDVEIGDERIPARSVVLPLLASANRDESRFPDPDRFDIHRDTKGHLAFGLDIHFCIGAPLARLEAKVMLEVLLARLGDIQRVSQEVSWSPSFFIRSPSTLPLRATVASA

Structure (SMILES) | in vitro biotransformation, GC-FID / GC-MS [1] | in vitro biotransformation, HPLC [2]
CC(=O)/C=C/C1=C(C)CCCC1(C)C [compound 1, β‐ionone] | The reference CYP109B1 hydroxylated β‐ionone exclusively in the allylic position | –
O=C(O)Cc1ccccc1Nc1c(Cl)cccc1Cl [compound 26, diclofenac] | – | CYP109Q5 also exhibited activities towards diclofenac, mefenamic acid, nerolidol, camphor
